Experimental data published in PMC8123621, “Development of Novel Potential Pleiotropic Compounds of Interest in Alzheimer’s Disease Treatment through Rigidification Strategy” (Molecules, 2021).

What was measured:
[1] = target: T1, human 5-HT4R (5-HT4(b) membrane preparations) (Homo sapiens, UniProt Q13639); assay: h5-HT4R radioligand displacement ([3H]-GR113808); type: binding; details: for inhibition at 1 µM: 10^−6 M, 0.5 nM [3H]-GR113808
T1 construct: purchased Eurofins HTS110M
Protocol: (§1) The inhibitory activity of novel analogs towards hAChE was evaluated according to the Ellman test.
At the end of the incubation, homogenates were filtered through Whatman GF/C filters (Alpha Biotech) presoaked with 0.5% polyethylenimine using a Brandel cell harvester. Filters were subsequently washed three times with 1 mL of ice-cold 25 mM Tris buffer (pH 7.4, 4 °C). Non-specific binding was evaluated in parallel in the presence of 30 µM serotonin.
(§2) For some of these compounds, affinity constants were calculated from five-point inhibition curves using the GraphPad Prism 6 software and expressed as Ki ± SD.

[2] = system: scopolamine induced deficit; parameters: method as in PMID 31316368; details: model of scopolamine induced deficit; cited from earlier work
human 5-HT6 receptors = target: T2, human 5-HT6 receptors (Homo sapiens, UniProt P50406); assay: h5-HT6R radioligand displacement ([3H]-LSD); type: binding; details: 10^−6 M; 2.5 nM [3H]-LSD
T2 construct: purchased Perkin Elmer RBHS6M; host or cells: HEK-293 cells, transient expression
Protocol: as §1
Drugs were evaluated through their possibility to compete for the binding of [^3H]-LSD on membranes of HEK-293 cells transiently expressing the human 5-HT6 receptors (ref. RBHS6M, Perkin Elmer). […] At the end of the incubation, the homogenates were then filtered through Whatman GF/C filters and washed five times with ice-cold 25 mM Tris-HCl buffer. Non-specific binding was evaluated in the presence of 100 µM serotonin. Radioactivity associated to proteins was then quantified and expressed as the percentage of inhibition of the drugs under study.
as §2

[3] = target: T3, hAChE (AChE from human erythrocytes) (Homo sapiens, UniProt P22303); assay: biochemical; details: for IC50: mean ± SEM of three experiments, read-out: hAChE IC50 (nM) (n = 3); for inhibition at 1 µM: read-out: hAChE % Inhibition at 10^−6 M
T3 construct: AChE from human erythrocytes; purchased Sigma Aldrich; host or cells: human erythrocytes (tissue-derived enzyme)
Protocol: as §1
Inhibitory capacity of compounds on AChE biological activity was evaluated through the use of the spectrometric method of Ellman. Acetylthiocholine iodide and 5,5-dithiobis-(2-nitrobenzoic) acid (DTNB) were purchased from Sigma Aldrich. AChE from human erythrocytes (buffered aqueous solution, ≥500 units/mg protein (BCA), Sigma Aldrich) was diluted in 20 mM HEPES buffer pH 8, 0.1% Triton X-100 such as to have enzyme solution with 0.25 unit/mL enzyme activity. In the procedure, 100 μL of 0.3 mM DTNB dissolved in phosphate buffer pH 7.4 were added into the 96 wells plate followed by 50 μL of test compound solution and 50 μL of enzyme ([…]). After 5 min of preincubation at 25 °C, the reaction was then initiated by the injection of 50 μL of 1 mM acetylthiocholine iodide solution. […] Assays were performed with a blank containing all components except acetylthiocholine, in order to account for non-enzymatic reaction. The reaction slopes were compared and the percent inhibition due to the presence of test compounds was calculated by the following expression: 100 − (vi/v0 × 100) where vi is the rate calculated in the presence of inhibitor and v0 is the enzyme activity.

T2 sequence (P50406 whole entry): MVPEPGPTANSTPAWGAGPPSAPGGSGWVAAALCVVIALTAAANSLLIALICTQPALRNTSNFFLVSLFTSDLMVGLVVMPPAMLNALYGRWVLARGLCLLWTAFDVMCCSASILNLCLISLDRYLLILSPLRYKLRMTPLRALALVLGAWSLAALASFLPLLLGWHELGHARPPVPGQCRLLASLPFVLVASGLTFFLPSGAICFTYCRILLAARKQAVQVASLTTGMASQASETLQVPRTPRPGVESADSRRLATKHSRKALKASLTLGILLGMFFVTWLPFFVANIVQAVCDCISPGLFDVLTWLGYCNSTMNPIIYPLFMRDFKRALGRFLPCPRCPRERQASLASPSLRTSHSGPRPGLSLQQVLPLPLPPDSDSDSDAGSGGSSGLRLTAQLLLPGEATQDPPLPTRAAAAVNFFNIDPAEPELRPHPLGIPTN
T1 sequence (Q13639 whole entry): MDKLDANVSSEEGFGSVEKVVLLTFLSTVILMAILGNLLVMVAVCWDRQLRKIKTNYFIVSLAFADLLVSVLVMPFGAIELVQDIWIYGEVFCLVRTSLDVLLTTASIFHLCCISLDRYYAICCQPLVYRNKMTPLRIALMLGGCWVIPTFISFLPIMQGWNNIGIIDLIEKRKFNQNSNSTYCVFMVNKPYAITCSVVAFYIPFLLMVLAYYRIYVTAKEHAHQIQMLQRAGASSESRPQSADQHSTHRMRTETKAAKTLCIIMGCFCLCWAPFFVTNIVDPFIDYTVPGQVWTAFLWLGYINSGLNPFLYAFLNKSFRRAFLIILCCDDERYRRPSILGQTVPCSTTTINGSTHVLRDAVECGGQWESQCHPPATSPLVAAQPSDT
T3 sequence (P22303 32-617 isoform P22303-2 limits assumed): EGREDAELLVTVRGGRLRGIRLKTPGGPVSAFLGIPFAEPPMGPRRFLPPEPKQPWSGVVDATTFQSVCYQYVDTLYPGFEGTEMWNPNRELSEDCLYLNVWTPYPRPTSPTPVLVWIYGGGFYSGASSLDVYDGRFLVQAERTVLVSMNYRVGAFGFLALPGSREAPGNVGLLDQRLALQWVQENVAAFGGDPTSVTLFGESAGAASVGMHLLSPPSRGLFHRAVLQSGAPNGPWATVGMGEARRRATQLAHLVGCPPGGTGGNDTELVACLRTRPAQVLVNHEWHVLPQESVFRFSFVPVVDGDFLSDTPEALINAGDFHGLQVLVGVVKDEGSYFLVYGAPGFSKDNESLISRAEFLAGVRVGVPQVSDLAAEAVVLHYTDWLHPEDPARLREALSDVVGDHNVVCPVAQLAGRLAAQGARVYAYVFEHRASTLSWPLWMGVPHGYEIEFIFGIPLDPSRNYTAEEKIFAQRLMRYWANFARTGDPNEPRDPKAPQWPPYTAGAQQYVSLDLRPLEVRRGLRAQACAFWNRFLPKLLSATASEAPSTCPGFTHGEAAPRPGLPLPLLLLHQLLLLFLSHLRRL

| SMILES | inhibition at 1 µM [1] [%] | in vivo anti-amnesic effect [2] | inhibition at 1 µM (human 5-HT6 receptors) [%] | IC50 [3] [nM] | inhibition at 1 µM [3] [%] | Ki [1] [nM] |
| --- | --- | --- | --- | --- | --- | --- |
| CCCCN1CCC(CCC(=O)c2cc(Cl)c(N)cc2OC)CC1 [RS67333, reference compound] | 100 |  |  |  |  |  |
| COc1cc(N)c(Cl)cc1C(=O)CCC1CCN(Cc2cccc(C)c2)CC1 [MR33372, reference compound] | 98 | anti-amnesic effect | 80 |  |  |  |
| COc1cc(NC(C)=O)c(Cl)cc1C(=O)CCC1CCN(CC2CCCCC2)CC1 [compound 7, N-(2-chloro-4-(3-(1-(cyclohexylmethyl)piperidin-4-yl)propanoyl)-5-methoxyphenyl)acetamide] | 94 |  |  | 34 ± 5 | 98 | 300 |
| COc1ccc(-c2cc(OCC3CCN(Cc4cccc(C)c4)CC3)n(C)n2)cc1OC [12d, 4-(((3-(3,4-dimethoxyphenyl)-1_methyl-1H-pyrazol-5-yl)oxy)methyl)-1-(3-methylbenzyl)piperidine] | 9 |  | 9 |  | 6 |  |
| COc1cc(NC(C)=O)c(Cl)cc1-c1cc(OCC2CCN(Cc3cccc(C)c3)CC2)n(C)n1 [12b, N-(2-chloro-5-methoxy-4-(1-methyl-5-((1-(3-methylbenzyl)piperidin-4-yl)methoxy)-1H-pyrazol-3-yl)phenyl)acetamide] | 9 |  | 0 |  | 15 |  |
| Cc1cccc(CN2CCC(COc3cc(-c4ccccc4)nn3C)CC2)c1 [12c, 4-(((1-methyl-3-phenyl-1H-pyrazol-5-yl)oxy)methyl)-1-(3-methylbenzyl)piperidine] | 10 |  | 6 |  | 15 |  |
| COc1cc(NC(C)=O)c(Cl)cc1-c1nn(C)cc1CC1CCN(CC2CCCCC2)CC1 [compound 6, N-(2-chloro-4-(4-((1-(cyclohexylmethyl)piperidin-4-yl)methyl)-1-methyl-1H-pyrazol-3-yl)-5-methoxyphenyl)acetamide] | 16 |  | 0 |  | 31 |  |
| COc1cc(N)c(Cl)cc1-c1nn(C)cc1CC1CCN(CC2CCCCC2)CC1 [3a, 2-chloro-4-(4-((1-(cyclohexylmethyl)piperidin-4-yl)methyl)-1-methyl-1H-pyrazol-3-yl)-5-methoxyaniline] | 34 |  | 2 |  | 34 |  |
| COc1cc(N)c(Cl)cc1C(=O)CCC1CCN(CC2CCCCC2)CC1 [Donecopride, donecopride, reference compound] | 100 |  | 30 |  | 96 |  |
| Fc1ccc2c(CCNCc3cccc(OCC(F)(F)C(F)F)c3)c[nH]c2c1 [Idalopirdine, idalopirdine, reference compound] |  |  | 106 |  |  |  |
| COc1cc(N)c(Cl)cc1-c1nn(C)cc1CC1CCN(Cc2cccc(C)c2)CC1 [3b, 2-chloro-5-methoxy-4-(1-methyl-4-((1-(3-methylbenzyl)piperidin-4-yl)methyl)-1H-pyrazol-3-yl)aniline] | 20 |  | 68 | 110 ± 4 | 76 |  |
